Read-outs that look alike come from different tables or passages of the source.
Legend:
Format in all cases: in vivo, rhesus monkey
α4β2 nicotine receptor = test: Test for selectivity to α7 nicotine receptor: PET brain uptake after pre-administration of α4β2-selective agonist A85380
Procedure: (§1) After 30 minutes, compound (Ia) or (Ib) was administered by intravenous injection, and dynamic measurement was performed for 91 minutes. After the obtained images were reconstituted, a region of interest (ROI) was set in each part of the brain, and kinetics of radioactivity was determined in each region.

[1] = Test for determining the amount of uptake of positron-emitting source compound (PET of brain after intravenous injection); settings: for kinetics in the brain: rhesus monkey, intravenous, PET
Procedure: A rhesus monkey (male, 5.5 kg in weight) was fasted overnight prior to the assay date. The monkey was seated on a monkey chair, and its head was fixed in a gantry of an animal PET camera (SHR-7700 manufactured by Hamamatsu Photonics K.K.) by a head positioner. Transmission measurement was performed for 30 minutes for […]. The injection products prepared in Production Examples 1-3 and 2 were then intravenously administered in doses of 77 ng/kg weight in terms of the amount of compound (Ia) and 230 ng/kg weight in terms of the amount of compound (Ib), respectively, and dynamic measurement was performed for 180 minutes. After the obtained images were reconstituted, a region of interest (ROI) was set in each part of the brain, and kinetics of radioactivity was determined in each region.

α7 nicotine receptor = target: T1, α7 nicotine receptor (Macaca mulatta, UniProt Q866A2)
T1 construct: from tissue; host or cells: brain of the living animal (in vivo PET)
T1 sequence (Q866A2 23-502): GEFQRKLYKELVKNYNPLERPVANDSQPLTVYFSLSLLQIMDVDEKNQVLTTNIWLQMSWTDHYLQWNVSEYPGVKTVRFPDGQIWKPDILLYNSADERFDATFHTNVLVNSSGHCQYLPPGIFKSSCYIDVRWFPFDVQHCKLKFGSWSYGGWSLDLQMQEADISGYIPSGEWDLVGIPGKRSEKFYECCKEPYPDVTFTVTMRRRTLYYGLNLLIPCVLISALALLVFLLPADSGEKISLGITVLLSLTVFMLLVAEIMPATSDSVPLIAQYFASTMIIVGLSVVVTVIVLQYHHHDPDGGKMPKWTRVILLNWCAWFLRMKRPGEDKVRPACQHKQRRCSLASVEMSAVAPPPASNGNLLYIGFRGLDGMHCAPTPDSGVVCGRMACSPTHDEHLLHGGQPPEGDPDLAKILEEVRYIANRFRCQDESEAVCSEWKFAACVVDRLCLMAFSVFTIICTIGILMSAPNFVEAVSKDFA
Procedure: as §1

Row | SMILES | effect of pre-administered α4β2 nicotine receptor-selective agonist on uptake into each part of the brain (α4β2 nicotine receptor; A85380 5 mg/kg i.v. 30 minutes before the compound) | time of peak value of radioactivity, most/other parts of the brain ([1]; after the administration, brain parts except hippocampus) | time of peak value of radioactivity, hippocampus ([1]; after the administration) | distribution of the concentrated compound in the brain ([1]; integrated images 40 to 60 minutes after the administration) | kinetics in the brain [1] | uptake into each part of the brain after pre-administered α7 nicotine receptor-selective agonist (α7 nicotine receptor; SSR180711A 1 or 5 mg/kg i.v. 30 minutes before the compound, depending on the dose of the agonist) | binding selectivity to α7 nicotine receptor (α7 nicotine receptor; conclusion from blocking with SSR180711A and A85380) | effect of pre-administered α4β2 nicotine receptor-selective agonist on uptake into each part of the brain (α4β2 nicotine receptor; rhesus monkey, in vivo) | amount of uptake in the brain ([1]; compared with compound (Ia)) | binding selectivity to α7 nicotine receptor (α7 nicotine receptor; rhesus monkey, in vivo) | uptake into each part of the brain after pre-administered α7 nicotine receptor-selective agonist (α7 nicotine receptor; rhesus monkey, in vivo)
1 | [11CH3]c1ccc(OC(=O)N2CCN3CCC2CC3)cc1 [Compound (Ia), 4-[^11C]methyl-phenyl 1,4-diazabicyclo[3.2.2]nonane-4-carboxylate] | almost no effect | about 10 minutes | 30 min | high in hippocampus, corpus striatum, thalamus, cingulate gyrus and cerebral cortex, but low in cerebellum | relatively fast | reduced to the level in the cerebellum | selective binding to α7 nicotine receptor | – | – | – | –
2 | O=C(Oc1ccc([76Br])cc1)N1CCN2CCC1CC2 [Compound (Ib), 4-[^76Br]bromophenyl 1,4-diazabicyclo[3.2.2]nonane-4-carboxylate] | – | – | 60 min | – | generally slow | – | – | almost no effect | not as large as that of compound (Ia) | selective binding to α7 nicotine receptor | reduced to the level in the cerebellum

— patent US20090087378A1, “Positron Tomography Method and Positron-Emitting Compound to Be Used Therein” (NARD INSTITUTE, LTD., priority 2006, published 2009)
